According to patent US20210255168A1, “A METHOD OF PRECISION CANCER THERAPY” (KING FAISAL SPECIALIST HOSPITAL & RESEARCH CENTRE, priority 2018, published 2021):

Key:
MDA-MB-231 cells [1] = assay: Migration assay (RTCA, without Matrigel); type: cell-based; conditions: MDA-MB-231, thirty hours after treatment
Description: (§1) MDA-MB-231 cells were seeded in 6-well cell culture plates and incubated overnight. The cells were treated with the selected protein kinase inhibitors and incubated overnight. Then they were reseeded onto the invasion chamber in serum-free media at a density of 2×10^4 cells per well using 16-well CIM-Plate in Real-Time Cell Analysis (RTCA) Dual Plate (DP) Analyzer (ACEA Bioscinece, California, USA) that was loaded inside the incubator. The lower chambers to which cells will migrate were prepared to contain chemoattractant consisted of 10% FBS. For invasion assays, Matrigel (BioCoat, BD Biosciences, MA) which resembles the complex extracellular environment found in many tissues was prepared and used to coat the upper chamber of CIM plates. Invasion and migration were monitored continuously over 72-hour period using RTCA Software (ACEA Bioscinece, California, USA). The RTCA Instrument automatically monitors the cells every 15 minutes for 100 repetitions. For proliferation assays, the same principle was applied using a single chamber containing complete DMEM media (FIG. 10).
(§2) Based on the dose-response curve, 330 nM was selected to be used as a standard dose for the experiments. In the invasion assay, MDA-MB-231 cells were treated with volasertib or DMSO for 24 hr, then invasion was monitored for 30 hr.

MDA-MB-231 cells [2] = assay: Invasion assay (RTCA, Matrigel); type: cell-based
Description: as §1, §2

## CC[C@@H]1C(=O)N(C)c2cnc(Nc3ccc(C(=O)N[C@H]4CC[C@H](N5CCN(CC6CC6)CC5)CC4)cc3OC)nc2N1C(C)C [volasertib]
MDA-MB-231 cells [1]
  cell migration: reduce breast cancer cells migration
MDA-MB-231 cells [2]; MDA-MB-231 treated 24 hr, monitored 30 hr, vs DMSO
  invasive behavior: reduced invasive behavior
MDA-MB-231 cells [2]; after treatment
  time at which the effect on invasion started: 6 h
